The source made the active and inactive calls.
Columns and labels:
[1] = target: T1, RNA-binding protein pos-1 (Caenorhabditis elegans, UniProt G5EF15); assay: inhibitors of POS-1/mex-3 RNA binding, dose response, biochemical, fluorescence polarization (AID 1964);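 further: purified POS-1 fused to maltose binding protein made in E. coli; potency of compounds blocking POS-1 binding to fluorescent RNA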
T1 sequence (G5EF15 whole entry): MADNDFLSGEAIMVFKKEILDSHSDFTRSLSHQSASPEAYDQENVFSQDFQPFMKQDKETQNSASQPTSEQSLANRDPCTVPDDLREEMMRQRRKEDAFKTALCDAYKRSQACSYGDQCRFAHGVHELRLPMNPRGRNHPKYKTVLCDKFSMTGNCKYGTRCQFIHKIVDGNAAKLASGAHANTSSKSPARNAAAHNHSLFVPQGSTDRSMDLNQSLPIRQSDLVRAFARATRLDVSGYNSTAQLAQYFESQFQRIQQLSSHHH

[2] = target: Induced myeloid leukemia cell differentiation protein Mcl-1 (Homo sapiens, UniProt Q07820); type: functional
[3] = target: T2, Zinc finger protein mex-5 (Caenorhabditis elegans, UniProt Q9XUB2); assay: MEX-5/TCR-2 RNA interaction inhibitors, dose response, biochemical, C. elegans, fluorescence polarization (AID 1960)
T2 sequence (Q9XUB2 whole entry): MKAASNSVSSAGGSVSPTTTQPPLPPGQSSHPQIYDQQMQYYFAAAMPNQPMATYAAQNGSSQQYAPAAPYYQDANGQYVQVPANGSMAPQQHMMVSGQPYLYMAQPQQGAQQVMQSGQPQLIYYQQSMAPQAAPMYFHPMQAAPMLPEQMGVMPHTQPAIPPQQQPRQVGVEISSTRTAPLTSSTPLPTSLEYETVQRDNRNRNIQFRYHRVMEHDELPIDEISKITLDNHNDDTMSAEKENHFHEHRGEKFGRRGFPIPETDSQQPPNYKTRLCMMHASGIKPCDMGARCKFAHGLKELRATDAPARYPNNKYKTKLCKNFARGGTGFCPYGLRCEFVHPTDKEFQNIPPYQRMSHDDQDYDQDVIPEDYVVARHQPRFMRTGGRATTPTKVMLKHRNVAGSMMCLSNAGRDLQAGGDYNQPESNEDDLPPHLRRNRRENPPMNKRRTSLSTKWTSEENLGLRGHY

[4] = target: Protein Rev (Human immunodeficiency virus type 1 group M subtype B (isolate HXB2)(HIV-1), UniProt P04618); assay: inhibitors of Rev binding to RRE RNA, dose response, biochemical, fluorescence polarization, HIV-1 (AID 434976); set-up: species or system Human immunodeficiency virus 1
[5] = target: Female germline-specific tumor suppressor gld-1 (Caenorhabditis elegans, UniProt Q17339); assay: inhibitors of GLD-1 binding to TGE RNA, dose response, biochemical, fluorescence polarization, C. elegans (AID 2802);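 further: fluorescence polarization of labeled TGE RNA bound by purified gld-1 protein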
[6] = Luminescence Cell-Based Dose Response HTS to Identify Activators of Luciferase Translation or Activity in H4 […] Cells. [Related pubchem assays: 1829 (Project Summary), 1814 (Primary HTS)]; type: functional
[7] = target: T3, Sentrin-specific protease 7 (Homo sapiens, UniProt Q9BQF6); type: functional;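 further: Luminescence-based dose-response confirmation of ultra-high-throughput screening hits, measuring inhibition of SENP7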
T3 sequence (Q9BQF6 whole entry): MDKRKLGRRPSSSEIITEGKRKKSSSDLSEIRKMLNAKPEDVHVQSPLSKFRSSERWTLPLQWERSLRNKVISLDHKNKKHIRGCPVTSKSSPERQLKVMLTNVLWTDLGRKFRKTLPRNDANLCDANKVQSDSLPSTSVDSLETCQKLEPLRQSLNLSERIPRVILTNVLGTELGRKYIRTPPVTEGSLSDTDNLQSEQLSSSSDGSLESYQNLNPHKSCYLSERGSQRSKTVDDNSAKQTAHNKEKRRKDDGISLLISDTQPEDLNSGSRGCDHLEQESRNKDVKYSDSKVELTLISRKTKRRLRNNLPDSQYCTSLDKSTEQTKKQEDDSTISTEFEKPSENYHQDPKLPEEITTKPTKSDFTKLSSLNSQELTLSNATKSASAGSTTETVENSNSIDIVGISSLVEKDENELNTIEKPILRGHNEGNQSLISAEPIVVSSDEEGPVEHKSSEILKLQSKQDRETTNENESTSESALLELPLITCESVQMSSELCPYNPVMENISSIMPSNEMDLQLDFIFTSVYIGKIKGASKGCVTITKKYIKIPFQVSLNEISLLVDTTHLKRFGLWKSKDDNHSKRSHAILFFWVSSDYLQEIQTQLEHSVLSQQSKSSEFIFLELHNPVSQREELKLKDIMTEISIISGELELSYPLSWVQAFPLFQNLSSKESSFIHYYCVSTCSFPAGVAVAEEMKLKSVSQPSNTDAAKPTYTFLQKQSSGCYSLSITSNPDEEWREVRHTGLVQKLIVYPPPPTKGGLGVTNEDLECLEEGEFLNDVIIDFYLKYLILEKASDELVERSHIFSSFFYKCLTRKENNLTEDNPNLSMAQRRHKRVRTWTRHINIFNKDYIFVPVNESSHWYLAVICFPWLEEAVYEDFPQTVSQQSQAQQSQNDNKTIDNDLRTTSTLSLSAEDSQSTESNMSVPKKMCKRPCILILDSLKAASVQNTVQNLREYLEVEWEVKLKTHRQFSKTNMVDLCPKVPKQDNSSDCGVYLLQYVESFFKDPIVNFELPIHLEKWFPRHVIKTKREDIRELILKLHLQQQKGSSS

[8] = tested on: H4; assay: Luminescence Cell-Based Dose Response HTS to Identify Activators of 5'UTR Stem-Loop Driven Prion Protein mRNA Translation in H4 Neuroglioblastoma Cells. [Related pubchem assays: 1829 (Project Summary), 1814 (Primary HTS)]; type: functional; details: Homo sapiens
[9] = target: T4, Sentrin-specific protease 8 (Homo sapiens, UniProt Q96LD8); type: functional;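 further: luminescence read-out of SENP8 inhibition, dose-response confirmation following an ultra-high-throughput screen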
T4 sequence (Q96LD8 whole entry): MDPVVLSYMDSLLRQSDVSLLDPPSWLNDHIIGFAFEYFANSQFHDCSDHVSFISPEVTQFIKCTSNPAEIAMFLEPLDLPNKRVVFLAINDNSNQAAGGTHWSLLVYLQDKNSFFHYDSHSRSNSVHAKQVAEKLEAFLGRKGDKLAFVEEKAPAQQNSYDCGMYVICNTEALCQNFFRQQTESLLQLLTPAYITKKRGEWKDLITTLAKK

[10] = target: NACHT, LRR and PYD domains-containing protein 3 (Homo sapiens, UniProt Q96P20); assay: NALP3 inhibitors in yeast, dose response, luminescent (AID 488799); type: functional
[11] = target: T5, Sentrin-specific protease 6 (Homo sapiens, UniProt Q9GZR1); type: functional;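 further: Luminescence-based dose-response confirmatory assay of SENP6 inhibition, following up an ultra-high-throughput screen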
T5 sequence (Q9GZR1 whole entry): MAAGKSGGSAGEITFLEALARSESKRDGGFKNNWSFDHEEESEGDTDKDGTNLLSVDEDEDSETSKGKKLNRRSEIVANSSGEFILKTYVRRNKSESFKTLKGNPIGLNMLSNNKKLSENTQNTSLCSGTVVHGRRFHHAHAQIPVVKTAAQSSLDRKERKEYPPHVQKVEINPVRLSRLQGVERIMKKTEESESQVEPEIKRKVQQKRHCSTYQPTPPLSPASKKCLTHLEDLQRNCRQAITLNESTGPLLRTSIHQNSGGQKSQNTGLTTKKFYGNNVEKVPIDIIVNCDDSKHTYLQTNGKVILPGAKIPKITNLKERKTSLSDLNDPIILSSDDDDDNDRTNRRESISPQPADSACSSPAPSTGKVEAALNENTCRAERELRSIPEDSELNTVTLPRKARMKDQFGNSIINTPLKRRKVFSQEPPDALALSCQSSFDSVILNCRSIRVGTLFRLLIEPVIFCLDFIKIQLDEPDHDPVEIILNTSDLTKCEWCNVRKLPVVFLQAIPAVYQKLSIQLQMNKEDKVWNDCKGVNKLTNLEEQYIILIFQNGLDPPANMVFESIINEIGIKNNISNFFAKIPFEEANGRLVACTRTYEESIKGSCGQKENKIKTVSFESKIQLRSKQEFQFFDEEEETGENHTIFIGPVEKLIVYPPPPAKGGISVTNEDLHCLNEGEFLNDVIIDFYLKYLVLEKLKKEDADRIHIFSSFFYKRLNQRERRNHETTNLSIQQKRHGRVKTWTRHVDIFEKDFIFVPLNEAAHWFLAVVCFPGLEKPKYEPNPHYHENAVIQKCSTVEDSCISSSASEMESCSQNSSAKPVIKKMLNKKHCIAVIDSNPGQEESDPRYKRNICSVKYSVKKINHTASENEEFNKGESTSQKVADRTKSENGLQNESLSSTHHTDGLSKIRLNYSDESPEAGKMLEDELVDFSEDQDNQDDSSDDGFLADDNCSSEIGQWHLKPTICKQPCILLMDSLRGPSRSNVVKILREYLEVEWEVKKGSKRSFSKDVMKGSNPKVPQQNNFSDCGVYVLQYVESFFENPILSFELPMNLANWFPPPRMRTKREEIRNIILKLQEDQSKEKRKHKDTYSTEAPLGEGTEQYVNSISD

[12] = target: T6, Caspase-3 (Homo sapiens, UniProt P42574); type: functional;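 further: Dose-response selectivity test against caspase-3 for candidate inhibitors of sentrin-specific proteases (SENPs)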
T6 sequence (P42574 whole entry): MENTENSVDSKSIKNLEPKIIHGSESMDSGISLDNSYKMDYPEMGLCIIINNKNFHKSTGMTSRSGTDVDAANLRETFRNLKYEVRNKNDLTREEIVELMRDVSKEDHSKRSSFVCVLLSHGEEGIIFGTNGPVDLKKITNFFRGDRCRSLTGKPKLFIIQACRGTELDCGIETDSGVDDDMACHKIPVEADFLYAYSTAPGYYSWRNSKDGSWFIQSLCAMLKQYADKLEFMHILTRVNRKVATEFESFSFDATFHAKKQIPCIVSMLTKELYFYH

[13] = cytotoxicity in HEK-293T cells, dose response, cytotoxicity control for TCR NF-kB inhibitor project, luminescence, T-cell screen hits (AID 489026); type: functional, cell-based;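 further: cells exposed to compound about 14 hours before the viability readout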
[14] = ZM109 Env clade C HIV-1 fusion inhibitors, dose response, HeLa effector, CEM target cells, luciferase, cherry-pick (AID 652058); type: functional, cell-based
[15] = CEM21 lymphoblast cell cytotoxicity, dose response, cytotoxicity control for viral fusion inhibitor project, CellTiter-Glo luminescence, cherry-picked (AID 652042); type: functional, cell-based;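 further: potency for signal decrease meaning cytotoxicity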
[16] = inhibitors of HIV Env-driven cell fusion, dose response, cherry-pick (AID 652057); type: functional, cell-based
[17] = off-target signal loss in HeLa-CEM21 co-culture – HeLa F-luc CTL cells, cherry-picked, counter-screen for HIV-1 Env fusion inhibitor project, dose response (AID 652040); type: functional, cell-based;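 further: potency for signal decrease marking cytotoxic or nonspecific inhibition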
[18] = target: Nonstructural protein 1 (Influenza A virus, UniProt Q194T2); type: functional, Influenza A virus (A/California/07/2009(H1N1))
[19] = inhibitors of clade B AD8 Env fusion, dose response, cell-based, cherry-pick (AID 652062); type: functional;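 further: luciferase signal from cell-cell fusion driven by HIV-1 clade B AD8 Env; potency is for inhibitors of fusion seen as a drop in luminescence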
[20] = target: T7, Carboxy-terminal domain RNA polymerase II polypeptide A small phosphatase 1 (Homo sapiens, UniProt Q9GZU7); assay: inhibitors of CTDSP1, concentration-response testing, biochemical assay, absorbance-based, actives from ultra-high-throughput screening (AID 540297); type: functional
T7 sequence (Q9GZU7 whole entry): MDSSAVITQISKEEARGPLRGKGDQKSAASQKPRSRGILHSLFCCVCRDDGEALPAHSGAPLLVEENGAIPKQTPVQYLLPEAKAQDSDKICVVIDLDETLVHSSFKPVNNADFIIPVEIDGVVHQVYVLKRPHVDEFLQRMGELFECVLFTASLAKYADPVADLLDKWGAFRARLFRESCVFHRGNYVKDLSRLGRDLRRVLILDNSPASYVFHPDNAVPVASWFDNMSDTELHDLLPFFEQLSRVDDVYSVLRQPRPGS

[21] = target: T8, Voltage-gated N-type calcium channel alpha-1B subunit/Amyloid beta A4 precursor protein-binding family A member 1 (Homo sapiens, UniProt Q00975+Q02410); type: protein assay
[22] = target: Large T antigen (Simian virus 40, UniProt P03070); type: functional, Betapolyomavirus macacae;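 further: Confirmatory-stage PubChem screen for compounds that inhibit SV40 T antigen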
[23] = target: T8, Voltage-gated N-type calcium channel alpha-1B subunit/Amyloid beta A4 precursor protein-binding family A member 1; type: protein assay; remark: listed apart in the source
[24] = target: Genome polyprotein (dengue virus type 2, UniProt P29990); assay: Dengue-2 NS5 methyltransferase inhibitors, primary screen, biochemical, confirmation dose response (AID 588689); type: functional
[25] = target: T8, Voltage-gated N-type calcium channel alpha-1B subunit/Amyloid beta A4 precursor protein-binding family A member 1; assay: disruptors of Mint-PDZ/N-type channel peptide interaction – biochemical, HTRF, SAR follow-up (AID 2489); type: functional
[26] = target: DNA dC->dU-editing enzyme APOBEC-3A (Homo sapiens, UniProt P31941); assay: APOBEC3A DNA deaminase inhibitors, dose response, biochemical (AID 504722); type: functional
[27] = target: DNA dC->dU-editing enzyme APOBEC-3G (Homo sapiens, UniProt Q9HC16); assay: Dose Response confirmation of small molecule APOBEC3G DNA Deaminase Inhibitors via a fluorescence-based single-stranded DNA deaminase assay. [Related pubchem assays (depositor defined):AID493012, AID493028]; type: functional

T8 sequence (Q00975 whole entry): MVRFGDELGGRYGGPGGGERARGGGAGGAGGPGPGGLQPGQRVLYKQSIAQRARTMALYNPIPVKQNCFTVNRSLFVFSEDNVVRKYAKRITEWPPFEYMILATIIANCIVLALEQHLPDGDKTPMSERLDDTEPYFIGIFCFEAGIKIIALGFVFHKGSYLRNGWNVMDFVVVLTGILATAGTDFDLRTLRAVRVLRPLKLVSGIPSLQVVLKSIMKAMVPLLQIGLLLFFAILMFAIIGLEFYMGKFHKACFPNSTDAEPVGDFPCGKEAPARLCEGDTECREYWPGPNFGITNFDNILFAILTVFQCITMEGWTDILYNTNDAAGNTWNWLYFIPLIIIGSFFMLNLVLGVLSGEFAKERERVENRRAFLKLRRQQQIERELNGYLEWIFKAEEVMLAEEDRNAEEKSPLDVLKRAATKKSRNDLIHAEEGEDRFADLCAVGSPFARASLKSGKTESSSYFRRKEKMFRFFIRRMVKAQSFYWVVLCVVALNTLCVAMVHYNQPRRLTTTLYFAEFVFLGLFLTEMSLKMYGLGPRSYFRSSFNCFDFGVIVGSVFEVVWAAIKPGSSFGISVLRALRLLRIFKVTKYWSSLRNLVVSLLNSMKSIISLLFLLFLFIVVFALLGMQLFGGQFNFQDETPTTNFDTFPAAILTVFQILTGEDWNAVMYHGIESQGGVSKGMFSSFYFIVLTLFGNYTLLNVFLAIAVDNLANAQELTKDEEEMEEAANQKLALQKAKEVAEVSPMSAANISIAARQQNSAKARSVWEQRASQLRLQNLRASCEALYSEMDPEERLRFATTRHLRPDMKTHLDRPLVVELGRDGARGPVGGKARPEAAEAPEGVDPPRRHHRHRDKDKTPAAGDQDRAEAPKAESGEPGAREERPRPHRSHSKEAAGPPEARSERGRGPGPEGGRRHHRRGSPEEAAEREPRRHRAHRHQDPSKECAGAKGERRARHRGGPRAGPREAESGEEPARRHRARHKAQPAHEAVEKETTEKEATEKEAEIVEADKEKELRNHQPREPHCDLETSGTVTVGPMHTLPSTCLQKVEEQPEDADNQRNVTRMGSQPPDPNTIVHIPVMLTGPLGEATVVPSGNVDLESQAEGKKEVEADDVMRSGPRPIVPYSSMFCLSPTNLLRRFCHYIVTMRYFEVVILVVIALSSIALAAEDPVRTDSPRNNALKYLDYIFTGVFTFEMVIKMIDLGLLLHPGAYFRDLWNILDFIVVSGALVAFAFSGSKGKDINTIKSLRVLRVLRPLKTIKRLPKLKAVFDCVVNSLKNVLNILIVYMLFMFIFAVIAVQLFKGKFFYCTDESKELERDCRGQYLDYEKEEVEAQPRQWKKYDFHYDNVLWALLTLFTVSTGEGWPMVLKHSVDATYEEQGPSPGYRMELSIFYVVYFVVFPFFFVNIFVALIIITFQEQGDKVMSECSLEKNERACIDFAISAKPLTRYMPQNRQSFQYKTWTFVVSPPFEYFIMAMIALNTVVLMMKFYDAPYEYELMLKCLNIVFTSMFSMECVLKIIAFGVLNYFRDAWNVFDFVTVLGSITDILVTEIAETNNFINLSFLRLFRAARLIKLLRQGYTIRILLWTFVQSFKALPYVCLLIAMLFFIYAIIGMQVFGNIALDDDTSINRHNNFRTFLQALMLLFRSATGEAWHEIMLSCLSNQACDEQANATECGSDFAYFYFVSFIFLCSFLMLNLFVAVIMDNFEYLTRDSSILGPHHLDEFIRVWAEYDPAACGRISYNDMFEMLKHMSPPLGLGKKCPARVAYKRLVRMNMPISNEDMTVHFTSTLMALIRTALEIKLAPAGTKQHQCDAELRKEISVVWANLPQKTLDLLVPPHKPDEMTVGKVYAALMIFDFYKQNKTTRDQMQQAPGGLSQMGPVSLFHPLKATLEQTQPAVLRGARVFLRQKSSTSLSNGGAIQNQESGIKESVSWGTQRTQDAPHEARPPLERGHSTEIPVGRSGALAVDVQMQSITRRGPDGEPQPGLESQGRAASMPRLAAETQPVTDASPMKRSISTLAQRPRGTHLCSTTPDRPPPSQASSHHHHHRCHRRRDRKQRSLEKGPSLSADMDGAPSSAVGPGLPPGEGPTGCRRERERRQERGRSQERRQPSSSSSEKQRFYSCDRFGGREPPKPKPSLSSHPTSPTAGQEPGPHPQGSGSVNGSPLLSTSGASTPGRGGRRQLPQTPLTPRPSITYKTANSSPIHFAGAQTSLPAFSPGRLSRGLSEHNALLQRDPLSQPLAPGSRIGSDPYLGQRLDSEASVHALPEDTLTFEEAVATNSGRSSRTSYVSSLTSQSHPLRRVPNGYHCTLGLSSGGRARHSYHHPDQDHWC
T8 sequence (Q02410 whole entry): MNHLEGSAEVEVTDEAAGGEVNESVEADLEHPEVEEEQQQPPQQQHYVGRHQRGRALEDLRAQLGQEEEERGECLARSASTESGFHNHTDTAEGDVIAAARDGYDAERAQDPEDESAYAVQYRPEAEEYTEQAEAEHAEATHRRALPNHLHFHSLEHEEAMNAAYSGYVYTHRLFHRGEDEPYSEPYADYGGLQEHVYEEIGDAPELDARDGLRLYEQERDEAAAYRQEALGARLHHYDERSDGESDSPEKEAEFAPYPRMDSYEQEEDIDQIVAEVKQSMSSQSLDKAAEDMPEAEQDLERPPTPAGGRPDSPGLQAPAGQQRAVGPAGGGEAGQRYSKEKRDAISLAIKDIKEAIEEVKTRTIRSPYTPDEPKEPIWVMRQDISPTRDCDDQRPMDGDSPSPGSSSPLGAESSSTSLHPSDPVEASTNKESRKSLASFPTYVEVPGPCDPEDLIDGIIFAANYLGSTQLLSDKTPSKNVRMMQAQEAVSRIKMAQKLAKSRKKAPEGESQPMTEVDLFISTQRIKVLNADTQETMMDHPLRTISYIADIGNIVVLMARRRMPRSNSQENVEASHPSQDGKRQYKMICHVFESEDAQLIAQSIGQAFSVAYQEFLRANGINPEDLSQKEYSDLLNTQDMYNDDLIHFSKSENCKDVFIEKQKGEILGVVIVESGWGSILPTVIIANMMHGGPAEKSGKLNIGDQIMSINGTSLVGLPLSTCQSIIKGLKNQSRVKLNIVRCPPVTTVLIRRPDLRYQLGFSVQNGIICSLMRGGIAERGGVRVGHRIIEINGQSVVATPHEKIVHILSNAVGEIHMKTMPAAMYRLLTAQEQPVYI
Chain of Induced myeloid leukemia cell differentiation protein Mcl-1 (Q07820 whole entry): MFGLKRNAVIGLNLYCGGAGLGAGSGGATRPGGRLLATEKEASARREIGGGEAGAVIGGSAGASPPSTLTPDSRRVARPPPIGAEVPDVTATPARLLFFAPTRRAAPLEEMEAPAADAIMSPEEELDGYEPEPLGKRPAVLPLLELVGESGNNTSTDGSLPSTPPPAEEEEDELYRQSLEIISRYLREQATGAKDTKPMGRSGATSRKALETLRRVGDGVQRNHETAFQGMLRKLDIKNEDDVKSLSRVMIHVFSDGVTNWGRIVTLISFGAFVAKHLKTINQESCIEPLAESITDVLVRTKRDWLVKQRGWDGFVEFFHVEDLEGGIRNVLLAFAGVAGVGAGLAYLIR
Chain of NACHT, LRR and PYD domains-containing protein 3 (Q96P20 whole entry, the tested form may be a part): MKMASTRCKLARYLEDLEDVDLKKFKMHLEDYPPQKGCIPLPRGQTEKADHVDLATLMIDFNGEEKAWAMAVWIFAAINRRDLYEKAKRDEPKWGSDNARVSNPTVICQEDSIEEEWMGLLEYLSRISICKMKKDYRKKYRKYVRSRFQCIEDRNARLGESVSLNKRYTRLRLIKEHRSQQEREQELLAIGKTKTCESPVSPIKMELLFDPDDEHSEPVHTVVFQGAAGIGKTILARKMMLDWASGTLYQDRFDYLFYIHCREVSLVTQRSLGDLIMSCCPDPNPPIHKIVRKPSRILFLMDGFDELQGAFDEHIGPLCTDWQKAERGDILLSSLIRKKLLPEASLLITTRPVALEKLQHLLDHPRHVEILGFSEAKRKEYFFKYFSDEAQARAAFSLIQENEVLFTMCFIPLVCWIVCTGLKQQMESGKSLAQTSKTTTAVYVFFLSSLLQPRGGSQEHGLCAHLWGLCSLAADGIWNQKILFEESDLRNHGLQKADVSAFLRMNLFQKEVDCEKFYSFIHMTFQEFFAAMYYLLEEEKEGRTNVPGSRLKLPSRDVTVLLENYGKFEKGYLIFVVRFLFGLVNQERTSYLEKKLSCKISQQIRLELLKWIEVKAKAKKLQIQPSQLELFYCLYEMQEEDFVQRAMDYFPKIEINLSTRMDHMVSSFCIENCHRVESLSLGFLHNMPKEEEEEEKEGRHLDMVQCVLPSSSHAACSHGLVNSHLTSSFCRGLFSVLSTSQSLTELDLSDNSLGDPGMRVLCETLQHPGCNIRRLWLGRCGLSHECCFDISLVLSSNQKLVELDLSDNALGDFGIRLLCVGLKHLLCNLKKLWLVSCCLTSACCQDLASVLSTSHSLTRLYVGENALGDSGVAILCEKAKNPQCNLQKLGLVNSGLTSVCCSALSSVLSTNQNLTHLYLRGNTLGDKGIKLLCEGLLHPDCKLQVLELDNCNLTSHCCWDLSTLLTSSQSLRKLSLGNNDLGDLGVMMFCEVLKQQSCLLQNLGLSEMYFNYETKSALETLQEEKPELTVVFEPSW
Chain of DNA dC->dU-editing enzyme APOBEC-3A (P31941 whole entry): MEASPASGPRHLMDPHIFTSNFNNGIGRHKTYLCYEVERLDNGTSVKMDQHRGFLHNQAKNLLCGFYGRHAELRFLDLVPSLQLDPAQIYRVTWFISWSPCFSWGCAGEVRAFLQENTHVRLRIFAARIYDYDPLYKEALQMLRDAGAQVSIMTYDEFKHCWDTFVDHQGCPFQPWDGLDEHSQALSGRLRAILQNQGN
Chain of Protein Rev (P04618 whole entry): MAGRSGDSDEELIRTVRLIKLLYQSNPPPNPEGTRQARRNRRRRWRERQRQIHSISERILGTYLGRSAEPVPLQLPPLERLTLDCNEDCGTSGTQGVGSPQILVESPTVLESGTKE

Nc1c(O)ccc2c1C(=O)c1ccccc1C2=O
EC50 [1]: > 300 µM (not active) | IC50 [2]: 3.66 µM (not active) | EC50 [3]: 10.4 µM (active) | IC50 [4]: > 75.4 µM (not active) | IC50 [5]: 4.15 µM (active)

CCCC1CCC(c2ccc(OCC)cc2)=CC1=O (stereo unspecified)
EC50 [6]: 0.126 µM (active) | IC50 [7]: 10.1 µM (active) | EC50 [8]: 20.7 µM (inconclusive) | IC50 [9]: 40.2 µM (active) | IC50 [10]: 53.9 µM (active) | IC50 [11]: 29.6 µM (active) | IC50 [12]: 21.3 µM (active)

CCN(CC)c1ccc2nc3ccc(N)cc3[n+](-c3ccccc3)c2c1
IC50 [13]: 67.7 µM (inactive) | AC50 [14]: 1.28 µM (active) | AC50 [15]: 3.25 µM (active) | AC50 [16]: 3.78 µM (active) | AC50 [17]: 1.41 µM (active) | IC50 [10]: 4.79 µM (active) | IC50 [18]: 8.47 µM (active) | AC50 [19]: 3.84 µM (active)

O=C(O)CCn1cc(C=C2C(=O)NC(=S)NC2=O)c(-c2cccc(Cl)c2)n1
IC50 [20]: 10.1 µM (active) | IC50 [2]: 2.87 µM (active) | IC50 [21]: 13 µM (active) | IC50 [22]: 76.3 µM (active) | IC50 [23]: 30.7 µM (active) | IC50 [24]: 10.9 µM (active)

CC(=O)NS(=O)(=O)c1ccc(NC(=O)/C=C/c2ccc(C)o2)cc1
IC50 [21]: 2.19 µM (active) | IC50 [25]: > 56.8 µM (inactive) | IC50 [23]: 6.9 µM (active)

Cc1ccccc1/C=N/n1c(S)nnc1-c1ccccn1
IC50 [26]: > 100 µM (inactive) | IC50 [27]: 4.13 µM (active)

— ChEMBL document CHEMBL1201862, “PubChem BioAssay data set” (2004)
